Molecules are shown by their SMILES. Where a name gives a salt, the structure may show the parent alone.

One data set deals with 18f-NLuc reporter virus. Put plainly: microbe, parasite or virus in culture. Particulars: for activity at 10 µM: Hepatovirus A, Huh-7.5.1, 72 h, read-out: Normalized HAV production. The data set is classed as cell-based, Hepatitis A virus.
For a further data set, the system named is Huh-7.5.1 cells. Put plainly: Cell viability in the chemical screen (Cell TiterGlo). To be noted: 10 µM compound, 72 h.

On to `Cc1cn([C@H]2C[C@H](N=[N+]=[N-])[C@@H](CO)O2)c(=O)[nH]c1=O` [Zidovudine], for which the activity at 10 µM with 18f-NLuc reporter virus is 131%. The “Viability Percent DMSO” value in the data set with Huh-7.5.1 cells is 92 Percent DMSO.
The matching figures for `COc1cnc(-n2cnc(C)n2)c2c1c(C(=O)C(=O)N1CCN(C(=O)c3ccccc3)CC1)cn2COP(=O)(O)O` [Fostemsavir]: 92% and 129 Percent DMSO.
For the compound `O=c1[nH]c(=O)n([C@H]2C[C@H](O)[C@@H](CO)O2)cc1I` [Dendrid], the activity at 10 µM with 18f-NLuc reporter virus is 102%. In addition, the “Viability Percent DMSO” value in the data set with Huh-7.5.1 cells came to 103 Percent DMSO.
Turning to `O=C(Nc1nc2ccc3scnc3c2s1)c1ccc2ccccc2c1` [KIN1148], the “Normalized HAV production” value in the data set on 18f-NLuc reporter virus is 1.39. Besides, the “Viability Percent DMSO” value in the data set with Huh-7.5.1 cells came out at 107 Percent DMSO.
For the compound `C=C(C)[C@@H]1CC[C@]2(C(=O)O)CC[C@]3(C)[C@H](CC[C@@H]4[C@@]5(C)CC[C@H](O)C(C)(C)[C@@H]5CC[C@]43C)[C@@H]12` [Betulinic acid], the activity at 10 µM in the data set on 18f-NLuc reporter virus was 75%. Moreover, the “Viability Percent DMSO” value with Huh-7.5.1 cells stood at 116 Percent DMSO.
Regarding `Nc1ccn([C@H]2CC[C@@H](CO)O2)c(=O)n1` [Zalcitabine], in the data set on 18f-NLuc reporter virus, the activity at 10 µM was 98%. Moreover, in the data set on Huh-7.5.1 cells, the “Viability Percent DMSO” value was 99 Percent DMSO.
Taken in the same sequence, the figures for `O=C(O)c1cc(=O)[nH]c(=O)[nH]1` [Orotic acid] were 85% and 105 Percent DMSO.
Taken in the same sequence, the figures for `C=C1CC[C@@H]2[C@](C)(CO)[C@H](O)CC[C@@]2(C)[C@@H]1C/C=C1/C(=O)OC[C@H]1O` [Andrographolide] were 86% and 106 Percent DMSO.
Taken in the same sequence, the figures for `CCCCCCCCCC(=O)O[C@H]1CC[C@H]2[C@@H]3CCC4=CC(=O)CC[C@@H]4[C@H]3CC[C@]12C` [Nandrolone decanoate] were 117% and 113 Percent DMSO.
As to `COc1cc2ncnc(Nc3cccc(Cl)c3)c2cc1OC` [AG-1478], in the data set with 18f-NLuc reporter virus, the “Normalized HAV production” value was determined as 0.51. Moreover, in the data set with Huh-7.5.1 cells, the “Viability Percent DMSO” value turned out to be 164 Percent DMSO.
For `Cc1nnc(C(=O)NC(C)(C)c2nc(C(=O)NCc3ccc(F)cc3)c(O)c(=O)n2C)o1` [Raltegravir], in the data set on 18f-NLuc reporter virus, the activity at 10 µM turned out to be 124%. Moreover, the “Viability Percent DMSO” value with Huh-7.5.1 cells stood at 132 Percent DMSO.
The matching figures for `C[C@H]1CO[C@@H]2Cn3cc(C(=O)NCc4ccc(F)cc4F)c(=O)c(O)c3C(=O)N12` [Cabotegravir]: 49% and 170 Percent DMSO.
In the case of `CN(C)[C@@H]1C(O)=C(C(N)=O)C(=O)[C@@]2(O)C(O)=C3C(=O)c4c(O)cccc4[C@@](C)(O)[C@H]3C[C@@H]12` [Tetracycline], the activity at 10 µM in the data set on 18f-NLuc reporter virus turned out to be 89%. Moreover, the “Viability Percent DMSO” value in the data set on Huh-7.5.1 cells is 114 Percent DMSO.
With `O=S(=O)(CCC(F)=C(F)F)c1ncc(Cl)s1` [Fluensulfone], in the data set with 18f-NLuc reporter virus, the “Normalized HAV production” value came out at 0.97. Moreover, the “Viability Percent DMSO” value with Huh-7.5.1 cells turned out to be 128 Percent DMSO.
As for `CCOC(=O)CCC(=O)O[C@H]1[C@H](O[C@@H]2[C@@H](C)[C@H](O[C@H]3C[C@@](C)(OC)[C@@H](O)[C@H](C)O3)[C@@H](C)C(=O)O[C@H](CC)[C@@](C)(O)[C@H](O)[C@@H](C)C(=O)[C@H](C)C[C@@]2(C)O)O[C@H](C)C[C@@H]1N(C)C` [Erythromycin ethylsuccinate], in the data set on 18f-NLuc reporter virus, the activity at 10 µM was found to be 60%. Also, in the data set on Huh-7.5.1 cells, the “Viability Percent DMSO” value turned out to be 107 Percent DMSO.
The matching figures for `O=c1[nH]c(=O)n([C@H]2C[C@H](O)[C@@H](CO)O2)cc1F` [Floxuridine]: 42% and 86 Percent DMSO.
In the case of `CC[C@@H](CO)NCCN[C@@H](CC)CO` [Ethambutol dihydrochloride], in the data set with 18f-NLuc reporter virus, the activity at 10 µM was 83%. In addition, in the data set with Huh-7.5.1 cells, the “Viability Percent DMSO” value came to 112 Percent DMSO.
The matching figures for `Nc1nc2c(ncn2[C@@H]2O[C@H](CO)[C@@H](O)[C@H]2O)c(=O)[nH]1` [Guanosine]: 88% and 126 Percent DMSO.
Turning to `Nc1ccn([C@@H]2O[C@H](CO)[C@@H](O)[C@@H]2O)c(=O)n1` [Cytarabine], the activity at 10 µM in the data set with 18f-NLuc reporter virus turned out to be 66%. Further, the “Viability Percent DMSO” value with Huh-7.5.1 cells is listed as 97 Percent DMSO.
As for `COc1ccnc(C[S+]([O-])c2nc3ccc(-n4cccc4)cc3[n-]2)c1C.[Na+]` (stereo not shown) [Ilaprazole sodium], the “Normalized HAV production” value in the data set with 18f-NLuc reporter virus was 0.66. Moreover, in the data set with Huh-7.5.1 cells, the “Viability Percent DMSO” value is reported as 159 Percent DMSO.
For `CC(C)OC(=O)[C@H](C)N[P@](=O)(OC[C@H]1O[C@@H](n2ccc(=O)[nH]c2=O)[C@](C)(F)[C@@H]1O)Oc1ccccc1` [Sofosbuvir], the activity at 10 µM in the data set on 18f-NLuc reporter virus worked out at 38%. In the data set on Huh-7.5.1 cells, the “Viability Percent DMSO” value was determined as 130 Percent DMSO.
In the case of `C[C@@H](c1ncncc1F)[C@](O)(Cn1cncn1)c1ccc(F)cc1F` [Voriconazole], in the data set on 18f-NLuc reporter virus, the activity at 10 µM was found to be 133%. Besides, the “Viability Percent DMSO” value in the data set on Huh-7.5.1 cells came to 123 Percent DMSO.
The matching figures for `COc1cc2c(cc1Cc1cccc(Cl)c1F)c(=O)c(C(=O)O)cn2[C@H](CO)C(C)C` [Elvitegravir]: 95% and 118 Percent DMSO.
Taken in the same sequence, the figures for `O=c1[nH]cc(F)c(=O)[nH]1` [Fluorouracil] were 84% and 103 Percent DMSO.
On to `Cc1cn([C@H]2O[C@@H](CO)[C@H](O)[C@H]2F)c(=O)[nH]c1=O` [Clevudine], for which the activity at 10 µM with 18f-NLuc reporter virus came to 84%. In addition, in the data set with Huh-7.5.1 cells, the “Viability Percent DMSO” value is given as 132 Percent DMSO.
Taken in the same sequence, the figures for `CCn1cc(C(=O)O)c(=O)c2cc(F)c(N3CCNCC3)nc21` [Enoxacin] were 89% and 159 Percent DMSO.
As to `COc1ccc(C2CNC(=O)C2)cc1OC1CCCC1` (stereo not shown) [Rolipram], in the data set on 18f-NLuc reporter virus, the activity at 10 µM was found to be 130%. The “Viability Percent DMSO” value in the data set on Huh-7.5.1 cells was found to be 113 Percent DMSO.
The matching figures for `NC(=O)c1nc(F)c[nH]c1=O` [Favipiravir]: 56% and 128 Percent DMSO.
With `CO[C@H]1/C=C/O[C@@]2(C)Oc3c(C)c(O)c4c(O)c(c(/C=N/N5CCN(C)CC5)c(O)c4c3C2=O)NC(=O)/C(C)=C\C=C\[C@H](C)[C@H](O)[C@@H](C)[C@@H](O)[C@@H](C)[C@H](OC(C)=O)[C@@H]1C` [Rifampicin], the activity at 10 µM in the data set with 18f-NLuc reporter virus worked out at 86%. Further, the “Viability Percent DMSO” value in the data set on Huh-7.5.1 cells was 119 Percent DMSO.
Taken in the same sequence, the figures for `COC(=O)c1cc(OC)c2c(c1-c1c(CO)cc(OC)c3c1OCO3)OCO2` [Bicyclol] were 105% and 115 Percent DMSO.
The matching figures for `O=C(O)c1ccccc1C(=O)Nc1ccc(S(=O)(=O)Nc2nccs2)cc1` [Phthalylsulfathiazole]: 83% and 112 Percent DMSO.
Taken in the same sequence, the figures for `O=C(Nc1ccccc1)c1ccccc1O` [Salicylanilide] were 76% and 120 Percent DMSO.
On to `CO/N=C(\C(=O)N[C@@H]1C(=O)N2C(C(=O)O)=C(C[N+]3(C)CCCC3)CS[C@H]12)c1csc(N)n1` [Cefepime Dihydrochloride Monohydrate], for which the activity at 10 µM in the data set on 18f-NLuc reporter virus was 73%. Also, in the data set with Huh-7.5.1 cells, the “Viability Percent DMSO” value worked out at 116 Percent DMSO.
On to `Cc1cc(C)c(Nc2ccnc(Nc3ccc(C#N)cc3)n2)c(C)c1` [Dapivirine], for which the activity at 10 µM in the data set on 18f-NLuc reporter virus amounted to 14%. In addition, in the data set with Huh-7.5.1 cells, the “Viability Percent DMSO” value was 114 Percent DMSO.
In the case of `C[C@H]1CC[C@@]2(O)C(C)(C)[C@@H]3CC[C@@]2(C)[C@H]1C3` [Patchouli alcohol], the “Normalized HAV production” value in the data set with 18f-NLuc reporter virus was found to be 1.10. Moreover, the “Viability Percent DMSO” value with Huh-7.5.1 cells was found to be 122 Percent DMSO.
With `CC(=O)N(CC(O)CO)c1c(I)c(C(=O)NCC(O)CO)c(I)c(C(=O)NCC(O)CO)c1I` (stereo not shown) [Iohexol], the activity at 10 µM with 18f-NLuc reporter virus stood at 157%. Also, the “Viability Percent DMSO” value in the data set with Huh-7.5.1 cells is 74 Percent DMSO.
`Cn1c(Cn2ccc(C(F)(F)F)c(Oc3cc(Cl)cc(C#N)c3)c2=O)n[nH]c1=O` [Doravirine]: the activity at 10 µM in the data set on 18f-NLuc reporter virus came out at 140%. Moreover, in the data set with Huh-7.5.1 cells, the “Viability Percent DMSO” value was determined as 95 Percent DMSO.
As for `CC1(C)S[C@@H]2[C@H](NC(=O)[C@H](N)c3ccccc3)C(=O)N2[C@H]1C(=O)O` [Ampicillin Trihydrate], the activity at 10 µM with 18f-NLuc reporter virus came to 76%. Moreover, in the data set with Huh-7.5.1 cells, the “Viability Percent DMSO” value is 116 Percent DMSO.
With `CC(C)[C@H](N)C(=O)OCCOCn1cnc2c(=O)[nH]c(N)nc21` [Valacyclovir hydrochloride], in the data set on 18f-NLuc reporter virus, the activity at 10 µM worked out at 87%. Moreover, the “Viability Percent DMSO” value in the data set on Huh-7.5.1 cells is 117 Percent DMSO.
The matching figures for `C=CC1=C(C(=O)O)N2C(=O)[C@@H](NC(=O)/C(=N\O)c3csc(N)n3)[C@H]2SC1` [Cefdinir]: 97% and 101 Percent DMSO.
With `CC1(C)S[C@@H]2[C@H](NC(=O)[C@H](NC(=O)N3CCNC3=O)c3ccccc3)C(=O)N2[C@H]1C(=O)O` [Azlocillin sodium], the activity at 10 µM in the data set on 18f-NLuc reporter virus amounted to 132%. Also, the “Viability Percent DMSO” value in the data set with Huh-7.5.1 cells is given as 98 Percent DMSO.
With `CCOC(=O)c1c(C)n(C)c2ccc(O)cc12` [Mecarbinate], the “Normalized HAV production” value in the data set with 18f-NLuc reporter virus is reported as 1.17. The “Viability Percent DMSO” value with Huh-7.5.1 cells worked out at 100 Percent DMSO.
The matching figures for `Cl.N=C(N=C(N)N)N1CCOCC1` [Moroxydine hydrochloride]: 1.21 and 125 Percent DMSO.
With `C=C1[C@H](CO)[C@@H](O)C[C@@H]1n1cnc2c(=O)[nH]c(N)nc21` [Entecavir hydrate], the activity at 10 µM in the data set on 18f-NLuc reporter virus was 93%. Besides, in the data set with Huh-7.5.1 cells, the “Viability Percent DMSO” value turned out to be 125 Percent DMSO.
Consider `Oc1ccc(Cl)c2cccnc12` [Dermofongin], for which the “Normalized HAV production” value in the data set on 18f-NLuc reporter virus stood at 0.98. Moreover, in the data set on Huh-7.5.1 cells, the “Viability Percent DMSO” value is listed as 101 Percent DMSO.
Take `OC[C@H]1O[C@@H](O[C@@H]2OC=C[C@H]3[C@H](O)[C@@H]4O[C@]4(CO)[C@@H]23)[C@H](O)[C@@H](O)[C@@H]1O` [Catalpol]: the activity at 10 µM in the data set on 18f-NLuc reporter virus stood at 98%. Besides, in the data set on Huh-7.5.1 cells, the “Viability Percent DMSO” value came to 128 Percent DMSO.
The matching figures for `Cc1cccc(C)c1OCC(=O)N[C@@H](Cc1ccccc1)[C@@H](O)C[C@H](Cc1ccccc1)NC(=O)[C@H](C(C)C)N1CCCNC1=O` [Lopinavir]: 43% and 126 Percent DMSO.
